Measurements reported in patent US8877927B2 (Grunenthal GmbH, priority 2006, dated 2014).

Legend:
[1] = Plasma incubations (human plasma stability); format: in vitro ADME; conditions: 25 μM, 37° C., percent remaining at 1 hour
Description: (§1) Human and rat plasma were purchased from Innovative Research Inc. (Southfield. Mich., USA). […] Aliquots were removed at 2 and 60 minutes and quenched with an equal volume of cold acetonitrile. After mixing vigorously, the precipitated protein matter was removed by filtration (Multiscreen Solvinert filter plates, Millipore, Bedford, Mass., USA) and the filtrate analysed by reverse phase HPLC with mass spectrometric detection, using single ion monitoring of the [M+H]^+ species. Metabolic turnover was determined by comparison of peak areas from the ion chromatograms of the parent compound at 2 and 60 minutes and expressed as percent remaining at 1 hour.

[2] = Liver microsomal incubations (HLM); format: in vitro ADME; conditions: human liver microsomes 0.5 mg/mL, 25 μM, NADPH, percent remaining at 1 hour
Description: (§2) Human and rat liver microsomes were purchased from BD Gentest (Woburn, Mass., USA) and β-nicotinamide adenine dinucleotide 2′-phosphate reduced tetrasodium salt (NADPH) was purchased from Sigma-Aldrich (Poole, Dorset, UK). All liver microsome incubations were carried out in 50 mM potassium phosphate buffer at pH 7.4, with a final microsomal protein concentration of 0.5 mg/mL. […] In brief, compounds were added to the incubation buffer along with the liver microsomes and incubated at 37° C. for 10 minutes. The reaction was then initiated by the addition of NADPH, previously dissolved in incubation buffer, to give a final concentration of 1 mM and re-incubated at 37° C. Aliquots were removed at 2 and 60 minutes and quenched with an equal volume of cold acetonitrile. After mixing vigorously, the precipitated protein matter was removed by filtration (Multiscreen Solvinert filter plates, Millipore, Bedford, Mass., USA) and the filtrate analysed by reverse phase HPLC with mass spectrometric detection, using single ion monitoring of the [M+H]^+ species. Metabolic turnover was determined by comparison of peak areas from the ion chromatograms of the parent compound at 2 and 60 minutes and expressed as percent remaining at 1 hour.

[3] = Plasma incubations (rat plasma stability); format: in vitro ADME; conditions: 25 μM, 37° C., percent remaining at 1 hour
Description: as §1

[4] = Liver microsomal incubations (RLM); format: in vitro ADME; conditions: rat liver microsomes 0.5 mg/mL, 25 μM, NADPH, percent remaining at 1 hour
Description: as §2

[5] = Rat pharmacokinetics (oral bioavailability, clearance); format: in vivo; conditions: for clearance / bioavailability: in vivo; for bioavailability: oral, read-out: Rat Oral Bioavailability (% F); for reduction in clearance: compared to prior art compound 42
[6] = target: T1, Human recombinant cathepsin K (Homo sapiens, UniProt P43235); experiment: In vitro cathepsin K Ki inhibition measurement; format: biochemical; conditions: for Ki: recombinant human cathepsin K, read-out: In vitro Ki (nM) vs Cath K
T1 construct: purchased B. Turk, Josef, Stefan Institute, Ljubljana, Slovenia
T1 sequence (P43235 115-329): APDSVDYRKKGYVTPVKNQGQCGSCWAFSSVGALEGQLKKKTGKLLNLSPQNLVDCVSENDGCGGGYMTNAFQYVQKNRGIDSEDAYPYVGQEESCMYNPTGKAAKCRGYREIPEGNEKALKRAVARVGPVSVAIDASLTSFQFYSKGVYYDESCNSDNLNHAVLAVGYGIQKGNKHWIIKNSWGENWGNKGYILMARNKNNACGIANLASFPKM
Description: Stock solutions of substrate or inhibitor were made up to 10 mM in 100% dimethylsulfoxide (DMSO) (Rathbums, Glasgow, U.K.) and diluted as appropriately required. In all cases the DMSO concentration in the assays was maintained at less than 1% (vol./vol.). The equilibrium inhibition constants (Ki^ss) for each compound were measured under steady-state conditions monitoring enzyme activity as a function of inhibitor concentration. The values were calculated on the assumption of pure competitive behaviour (Cornish-Bowden, A. Fundamentals of enzyme kinetics Portland Press; 1995, 93-128.). Human recombinant cathepsin K (0.25 nM final; B. Turk, Josef, Stefan Institute, Ljubljana, Slovenia), was routinely assayed in 100 mM sodium acetate; pH 5.5 containing 1 mM EDTA, 10 mM L-cysteine and 1.8 μM Z-Leu-Arg-AMC ([S]═KM).
The apparent inhibition constant (Ki) for each compound was determined on the basis that inhibition was reversible and occurred by a pure-competitive mechanism. The Ki values were calculated, from the dependence of enzyme activity as a function of inhibitor concentration, by direct regression analysis (Prism v 3.02) using Equation 2 (Cornish-Bowden, A., 1995.).
In situations where the apparent dissociation constant (Ki^app) approached the enzyme concentrations, the Ki^app values were calculated using a quadratic solution in the form described by Equation 3 (Morrison, J. F. Trends Biochem. Sci., 7, 102-105, 1982; Morrison, J. F. Biochim. Biophys. Acta, 185, 269-286, 1969; Stone, S. R. and Hofsteenge, J. Biochemistry, 25, 4622-4628, 1986).
In Equation 3 ‘vi’ is the observed residual activity, ‘F’ is the difference between the maximum activity (i.e. in the absence of inhibitor) and minimum enzyme activity, ‘Eo’ is the total enzyme concentration, ‘Ki^app’ is the apparent dissociation constant and ‘Io’ is the inhibitor concentration. Curves were fitted by non-linear regression analysis (Prism) using a fixed value for the enzyme concentration. Equation 4 was used to account for the substrate kinetics, where ‘Ki’ is the inhibition constant, ‘[So]’ is the initial substrate concentration and ‘KM^app’ is the apparent macroscopic binding (Michaelis) constant for the substrate (Morrison, 1982).

[7] = compared to prior art compound 42
[8] = compared to prior art compound 11

Compound | Human Plasma Stability % rem. @ 1 h [1] [%] | HLM % rem. @ 1 hr [2] [%] | Rat Plasma Stability % rem. @ 1 h [3] [%] | RLM % rem. @ 1 hr [4] [%] | clearance [5] [mL/min/kg] | bioavailability [5] [%] | improvement in in vitro potency against recombinant human cathepsin K [6, 7] [fold] | Ki [6] [nM] | reduction in clearance [5] | also measured
CN1CCN(c2ccc(C(=O)N[C@H](C(=O)N3CC(F)[C@H]4OCC(=O)[C@H]43)C3CCCCC3)cc2)CC1 (stereo in doubt) [Example 2, N—((S)-1-cyclohexyl-2-((3aS,6S,6aS)-6-fluoro-3-oxodihydro-2H-furo[3,2-b]pyrrol-4(5H,6H,6aH)-yl)-2-oxoethyl)-4-(4-methylpiperazin-1-yl)benzamide] | 93.1 | 98.2 | 100 | 73.3 | 25 | 80 | – | 14.9 | 68% | –
CN1CCN(c2nc(-c3ccc(C(=O)N[C@H](C(=O)N4C[C@@H](Cl)[C@H]5OCC(=O)[C@H]54)C4CCCC4)cc3)cs2)CC1 [Example 8] | 96 | 54.1 | 85.1 | 7.7 | – | – | – | 0.3 | – | –
CC(C)C[C@H](NC(=O)c1ccc(-c2csc(N3CCN(C)CC3)n2)cc1)C(=O)N1CC[C@H]2OCC(=O)[C@H]21 [prior art compound 11] | 92.6 | 82.6 | 88.6 | 4.8 | – | – | – | – | – | –
CN1CCN(c2nc(-c3ccc(C(=O)N[C@H](C(=O)N4CC[C@H]5OCC(=O)[C@H]54)C4CCCC4)cc3)cs2)CC1 [prior art compound 13] | 82.5 | 79.4 | 93 | 4.3 | – | – | – | – | – | improvement in in vitro potency against recombinant human cathepsin K [6, 8]: only minor improvement
CN1CCN(c2ccc(C(=O)N[C@H](C(=O)N3CC[C@H]4OCC(=O)[C@H]43)C3CCCC3)cc2)CC1 [prior art compound 12] | 97.2 | 91.2 | 94.1 | 93.9 | 56 | 45 | 5 | 1.8 | 29% | –
CN1CCN(c2nc(-c3ccc(C(=O)N[C@H](C(=O)N4C[C@@H](F)[C@H]5OCC(=O)[C@H]54)C4CCCC4)cc3)cs2)CC1 [Example 7] | 96.3 | 74 | 88 | 3.5 | – | – | – | 0.9 | – | –

Further lines, with some results ahead:

Human Plasma Stability % rem. @ 1 h [1] [%] | HLM % rem. @ 1 hr [2] [%] | Rat Plasma Stability % rem. @ 1 h [3] [%] | RLM % rem. @ 1 hr [4] [%] | clearance [5] [mL/min/kg] | bioavailability [5] [%] | improvement in in vitro potency against recombinant human cathepsin K [6, 7] [fold] | Ki [6] [nM] | reduction in clearance [5] | Compound | also measured
95 | 95 | 84.2 | 76.6 | 79 | 31.5 | – | – | – | CC(C)C[C@H](NC(=O)c1ccc(N2CCN(C)CC2)cc1)C(=O)N1CC[C@H]2OCC(=O)[C@H]21 [prior art compound 42] | –
97.4 | 85.6 | 96.6 | 81.3 | 107 | 37 | 17 | 0.5 | – | CN1CCN(c2ccc(C(=O)N[C@H](C(=O)N3CC(Cl)[C@H]4OCC(=O)[C@H]43)C3CCCC3)cc2)CC1 (stereo in doubt) [Example 5, N—((S)-2-((3aS,6S,6aS)-6-chloro-3-oxodihydro-2H-furo[3,2-b]pyrrol-4(5H,6H,6aH)-yl)-1-cyclopentyl-2-oxoethyl)-4-(4-methylpiperazin-1-yl)benzamide] | increase in in vitro potency against recombinant human cathepsin K ([6]; compared to the direct (S)-leucine analogue (14)): 3.5 fold
70.2 | 66.7 | 90.2 | 4.4 | – | – | – | 1.5 | – | CC(C)C[C@H](NC(=O)c1ccc(-c2csc(N3CCN(C)CC3)n2)cc1)C(=O)N1C[C@@H](F)[C@H]2OCC(=O)[C@H]21 [prior art compound 8.19] | improvement in in vitro potency against recombinant human cathepsin K [6, 8]: only minor improvement
– | – | – | – | – | – | – | 3.7 | – | CC(C)C[C@H](NC(=O)c1ccc(N2CCN(C)CC2)cc1)C(=O)N1C[C@@H](Cl)[C@H]2OCC(=O)[C@H]21 [prior art compound 15] | Human Plasma Stability % rem. @ 1 h ([1]; listed as drawing 59): 90.3%; HLM % rem. @ 1 hr ([2]; listed as drawing 59): 80.3%; Rat Plasma Stability % rem. @ 1 h ([3]; listed as drawing 59): 88.9%; RLM % rem. @ 1 hr ([4]; listed as drawing 59): 81.6%
– | – | – | – | – | – | – | 1.8 | – | CC(C)C[C@H](NC(=O)c1ccc(N2CCN(C)CC2)cc1)C(=O)N1C[C@@H](Cl)[C@H]2OCC(=O)[C@H]21 [prior art compound 14] | Human Plasma Stability % rem. @ 1 h ([1]; listed as drawing 58): 85.5%; HLM % rem. @ 1 hr ([2]; listed as drawing 58): 84.8%; Rat Plasma Stability % rem. @ 1 h ([3]; listed as drawing 58): 92.8%; RLM % rem. @ 1 hr ([4]; listed as drawing 58): 85.5%
100 | 96.8 | 94.2 | 93.6 | 81 | 40 | 2.4 | 3.6 | no effect | CC(C)C[C@H](NC(=O)c1ccc(N2CCN(C)CC2)cc1)C(=O)N1C[C@@H](F)[C@H]2OCC(=O)[C@H]21 [prior art compound 10] | –
96.4 | 100 | 95.9 | 82 | 23 | 88 | 5 | 1.7 | 71% | CN1CCN(c2ccc(C(=O)N[C@H](C(=O)N3C[C@H](F)[C@H]4OCC(=O)[C@H]43)C3CCCC3)cc2)CC1 [Example 1, N—((S)-1-cyclopentyl-2-((3aS,6S,6aS)-6-fluoro-3-oxodihydro-2H-furo[3,2-b]pyrrol-4(5H,6H,6aH)-yl)-2-oxoethyl)-4-(4-methylpiperazin-1-yl)benzamide] | –
